The subject of the experiment is Anti-β-1,6-Glucan IgG antibodies (affinity purified from IVIG, Baxter). The experiment in a line: ELISA: binding of oligosaccharides to anti-β-1,6-glucan antibodies. Also: key: a plus (+) sign indicates that the glucan was active in the assay; a minus (−) sign indicates that the glucan was not active; the '+/−' symbol indicates inconclusive results. Particulars: plate coated with oligosaccharide in PBS; 40 ug/mL anti-Beta 1,6 Glucan IgG; anti-human IgG-HRP, TMB, absorbance at 620 nm. On the procedure:
Binding of oligosaccharides to anti-β-1,6-glucan antibodies is performed as described in the following protocol.
• 1. […] Anti-β-1,6-Glucan IgG antibodies (affinity purified from IVIG, Baxter) • 6. […] PBS-Tween buffer (PH 7.2, 0.05% Tween 20, Kpl cat #51-12-01) II. Method: Detection of Anti-Beta Glucan IgG by ELISA • 1. Coat plate with oligosaccharides in PBS overnight at 4° C. • 2. Wash 3 times with 250 uL of PBS-Tween • 3. Empty plate • 4. Block plate with 200 uL of Casein for 1 hour at room temperature • 5. Empty plate • 6. Add 40 ug/mL anti-Beta 1,6 Glucan IgG (4 ug/well) in Casein • 7. Incubate for 45 min at room temperature • 8. Wash 3 times with 250 uL of PBS-Tween • 9. Empty plate • 10. Add detection antibody: anti-human IgG-HRP at 1:5000—in casein. Incubate for 45 min at room temperature in the dark • 11. Wash 5 times with 250 uL of PBS-Tween • 12. Empty plate • 13. Add 100 uL of one step ultra TMB • 14. Measure the absorbance at 620 nm every 1 min for 60 min Tables 1-3 provide ELISA assay data for certain glucan compounds.

On to `COC1O[C@H](CO[C@@H]2O[C@H](CO[C@@H]3O[C@H](CO[C@@H]4O[C@H](CO[C@@H]5O[C@H](CO[C@@H]6O[C@H](CO[C@@H]7O[C@H](CO[C@@H]8O[C@H](CO[C@@H]9O[C@H](CO[C@@H]%10O[C@H](CO)[C@@H](O)[C@H](O)[C@H]%10O)[C@@H](O)[C@H](O)[C@H]9O)[C@@H](O)[C@H](O)[C@H]8O)[C@@H](O)[C@H](O)[C@H]7O)[C@@H](O)[C@H](O)[C@H]6O)[C@@H](O)[C@H](O)[C@H]5O)[C@@H](O)[C@H](O)[C@H]4O)[C@@H](O)[C@H](O)[C@H]3O)[C@@H](O)[C@H](O)[C@H]2O)[C@@H](O)[C@H](O)[C@H]1O` (stereo partly drawn) [OCH3, n=10, methyl [O-β-D-glucopyranosyl-1,6]9-D-glucopyranoside], for which the “ELISA assay data: glucan active in detection of anti-beta glucan IgG” value (from here on “ELISA assay data: glucan active”) was “+”.
Turning to `O=C(O)C1CCN(CC(O)[C@@H](O)[C@H](O)[C@H](O)CO[C@@H]2O[C@H](CO[C@@H]3O[C@H](CO[C@@H]4O[C@H](CO[C@@H]5O[C@H](CO[C@@H]6O[C@H](CO)[C@@H](O)[C@H](O)[C@H]6O)[C@@H](O)[C@H](O)[C@H]5O)[C@@H](O)[C@H](O)[C@H]4O)[C@@H](O)[C@H](O)[C@H]3O)[C@@H](O)[C@H](O)[C@H]2O)CC1` (mixture of isomers) [4-piperidineCO2H, n=5], the “ELISA assay data: glucan active” value was “+”.
The same measure for `COC1O[C@H](CO[C@@H]2O[C@H](CO[C@@H]3O[C@H](CO[C@@H]4O[C@H](CO[C@@H]5O[C@H](CO)[C@@H](O)[C@H](O)[C@H]5O)[C@@H](O)[C@H](O)[C@H]4O)[C@@H](O)[C@H](O)[C@H]3O)[C@@H](O)[C@H](O)[C@H]2O)[C@@H](O)[C@H](O)[C@H]1O` (stereo partly drawn) [OCH3, n=5, methyl [O-β-D-glucopyranosyl-1,6-]4-D-glucopyranoside]: “+”.
For `O=C(O)C1CCN(CC(O)[C@@H](O)[C@H](O)[C@H](O)CO[C@@H]2O[C@H](CO[C@@H]3O[C@H](CO[C@@H]4O[C@H](CO[C@@H]5O[C@H](CO[C@@H]6O[C@H](CO)[C@@H](O)[C@H](O)[C@H]6O)[C@@H](O)[C@H](O)[C@H]5O)[C@@H](O)[C@H](O)[C@H]4O)[C@@H](O)[C@H](O)[C@H]3O)[C@@H](O)[C@H](O)[C@H]2O)C1` (mixture of isomers) [3-pyrrolidineCO2H, n=5] the value was “+”; for `O=C(O)C1CCN(CC(O)[C@@H](O)[C@H](O)[C@H](O)CO[C@@H]2O[C@H](CO[C@@H]3O[C@H](CO[C@@H]4O[C@H](CO[C@@H]5O[C@H](CO)[C@@H](O)[C@H](O)[C@H]5O)[C@@H](O)[C@H](O)[C@H]4O)[C@@H](O)[C@H](O)[C@H]3O)[C@@H](O)[C@H](O)[C@H]2O)C1` (mixture of isomers) [3-pyrrolidineCO2H, n=4], “+”; for `OC[C@H]1O[C@@H](OC[C@H]2O[C@@H](OC[C@H]3O[C@@H](OC[C@H]4O[C@@H](OC[C@H]5O[C@@H](OC[C@H]6O[C@@H](OC[C@H]7OC(OCCCl)[C@H](O)[C@@H](O)[C@@H]7O)[C@H](O)[C@@H](O)[C@@H]6O)[C@H](O)[C@@H](O)[C@@H]5O)[C@H](O)[C@@H](O)[C@@H]4O)[C@H](O)[C@@H](O)[C@@H]3O)[C@H](O)[C@@H](O)[C@@H]2O)[C@H](O)[C@@H](O)[C@@H]1O` (stereo partly drawn) [α-O(CH2)2Cl, n=7, 2-chloroethyl [O-β-D-glucopyranosyl-1,6]6-D-glucopyranoside], “+”.
Take `OC[C@H]1O[C@@H](OC[C@H]2O[C@@H](OC[C@H]3O[C@@H](OC[C@H]4O[C@@H](OC[C@H]5O[C@@H](OC[C@H]6O[C@@H](OC[C@H]7O[C@@H](OC[C@H]8O[C@@H](OC[C@H]9O[C@@H](OC[C@H]%10OC(O)[C@H](O)[C@@H](O)[C@@H]%10O)[C@H](O)[C@@H](O)[C@@H]9O)[C@H](O)[C@@H](O)[C@@H]8O)[C@H](O)[C@@H](O)[C@@H]7O)[C@H](O)[C@@H](O)[C@@H]6O)[C@H](O)[C@@H](O)[C@@H]5O)[C@H](O)[C@@H](O)[C@@H]4O)[C@H](O)[C@@H](O)[C@@H]3O)[C@H](O)[C@@H](O)[C@@H]2O)[C@H](O)[C@@H](O)[C@@H]1O` (stereo partly drawn) [OH, n=10, [O-β-D-glucopyranosyl-1,6-]9-D-glucose]: the “ELISA assay data: glucan active” value was “+”.
For `OC[C@H]1O[C@@H](OC[C@H]2O[C@@H](OC[C@H]3O[C@@H](OC[C@H]4O[C@@H](OC[C@H]5O[C@H](OCCCl)[C@H](O)[C@@H](O)[C@@H]5O)[C@H](O)[C@@H](O)[C@@H]4O)[C@H](O)[C@@H](O)[C@@H]3O)[C@H](O)[C@@H](O)[C@@H]2O)[C@H](O)[C@@H](O)[C@@H]1O` [α-O(CH2)2Cl, n=5, 2-chloroethyl [O-β-D-glucopyranosyl-1,6]4-D-glucopyranoside] the value was “+”.
For “N-[6-[(O-(β-D-glucopyranosyl-(1,6))4-β-D-glucopyranosyl](2RS,3R,4R,5R)-2,3,4,5-tetrahydroxyhexyl]-4-piperidylacetic acid [4-piperidine(CH2)CO2H, n=5]” the value was “+”.
The same measure for “[(2R,3R,4R,5RS)-2,3,4,5-tetrahydroxy-6-[(N-methyl-N-(5-aminopentyl))amino]hexyl [O-β-D-glucopyranosyl-1,6]6-β-D-glucopyranoside [N(Me),N(CH2)5NH2, n=7]”: “+”.
Turning to `O=C(O)c1cc(OCc2cn(CCO[C@@H]3O[C@H](CO[C@@H]4O[C@H](CO[C@@H]5O[C@H](CO[C@@H]6O[C@H](CO[C@@H]7O[C@H](CO)[C@@H](O)[C@H](O)[C@H]7O)[C@@H](O)[C@H](O)[C@H]6O)[C@@H](O)[C@H](O)[C@H]5O)[C@@H](O)[C@H](O)[C@H]4O)[C@@H](O)[C@H](O)[C@H]3O)nn2)cc(OCc2cn(CCO[C@@H]3O[C@H](CO[C@@H]4O[C@H](CO[C@@H]5O[C@H](CO[C@@H]6O[C@H](CO[C@@H]7O[C@H](CO)[C@@H](O)[C@H](O)[C@H]7O)[C@@H](O)[C@H](O)[C@H]6O)[C@@H](O)[C@H](O)[C@H]5O)[C@@H](O)[C@H](O)[C@H]4O)[C@@H](O)[C@H](O)[C@H]3O)nn2)c1` [(β-D-glucopyanosy1-1,6)nβ-O(CH2)2-, n=5, 3,5-bis(1[2-[O-β-D-glucopyranosyl-(1→6)]5oxy]ethyl-1H-1,2,3-triazol-4-yl)methoxybenzoic acid], the “ELISA assay data: glucan active” value was “+”.
As to `O=C(O)c1cc(OCc2cn(CCO[C@@H]3O[C@H](CO[C@@H]4O[C@H](CO[C@@H]5O[C@H](CO[C@@H]6O[C@H](CO)[C@@H](O)[C@H](O)[C@H]6O)[C@@H](O)[C@H](O)[C@H]5O)[C@@H](O)[C@H](O)[C@H]4O)[C@@H](O)[C@H](O)[C@H]3O)nn2)cc(OCc2cn(CCO[C@@H]3O[C@H](CO[C@@H]4O[C@H](CO[C@@H]5O[C@H](CO[C@@H]6O[C@H](CO)[C@@H](O)[C@H](O)[C@H]6O)[C@@H](O)[C@H](O)[C@H]5O)[C@@H](O)[C@H](O)[C@H]4O)[C@@H](O)[C@H](O)[C@H]3O)nn2)c1` [(β-D-glucopyanosy1-1,6)nβ-O(CH2)2-, n=4, 3,5-bis(1[2-[O-β-D-glucopyranosyl-(1→6)]4oxy]ethyl-1H-1,2,3-triazol-4-yl)methoxybenzoic acid], the “ELISA assay data: glucan active” value is “+”.
Turning to `COC1O[C@H](CO[C@@H]2O[C@H](CO[C@@H]3O[C@H](CO[C@@H]4O[C@H](CO)[C@@H](O)[C@H](O)[C@H]4O)[C@@H](O)[C@H](O)[C@H]3O)[C@@H](O)[C@H](O)[C@H]2O)[C@@H](O)[C@H](O)[C@H]1O` (stereo partly drawn) [OCH3, n=4, methyl [O-β-D-glucopyranosyl-1,6]3-D-glucopyranoside], the “ELISA assay data: glucan active” value was “+”.
As for `O=C(O)C1CCN(CC(O)[C@@H](O)[C@H](O)[C@H](O)CO[C@@H]2O[C@H](CO[C@@H]3O[C@H](CO[C@@H]4O[C@H](CO)[C@@H](O)[C@H](O)[C@H]4O)[C@@H](O)[C@H](O)[C@H]3O)[C@@H](O)[C@H](O)[C@H]2O)C1` (mixture of isomers) [3-pyrrolidineCO2H, n=3], the “ELISA assay data: glucan active” value is on record as “+”.
The same measure for `CN(CCCCCN)CC(O)[C@@H](O)[C@H](O)[C@H](O)CO[C@@H]1O[C@H](CO[C@@H]2O[C@H](CO[C@@H]3O[C@H](CO[C@@H]4O[C@H](CO[C@@H]5O[C@H](CO[C@@H]6O[C@H](CO)[C@@H](O)[C@H](O)[C@H]6O)[C@@H](O)[C@H](O)[C@H]5O)[C@@H](O)[C@H](O)[C@H]4O)[C@@H](O)[C@H](O)[C@H]3O)[C@@H](O)[C@H](O)[C@H]2O)[C@@H](O)[C@H](O)[C@H]1O` (mixture of isomers) [N(Me),N(CH2)5NH2, n=6]: “+”.
On to `O=C(O)C1CCN(CC(O)[C@@H](O)[C@H](O)[C@H](O)CO[C@@H]2O[C@H](CO[C@@H]3O[C@H](CO[C@@H]4O[C@H](CO)[C@@H](O)[C@H](O)[C@H]4O)[C@@H](O)[C@H](O)[C@H]3O)[C@@H](O)[C@H](O)[C@H]2O)CC1` (mixture of isomers) [4-piperidineCO2H, n=3, N-[6-[(O-β-D-glucopyranosyl-(1,6))2-β-D-glucopyranosyl](2RS,3R,4R,5R)-2,3,4,5-tetrahydroxyhexyl]piperidine-4-carboxylic acid], for which the “ELISA assay data: glucan active” value was “+”.
The same measure for `[N-]=[N+]=NCCO[C@H]1O[C@H](CO[C@@H]2O[C@H](CO[C@@H]3O[C@H](CO[C@@H]4O[C@H](CO)[C@@H](O)[C@H](O)[C@H]4O)[C@@H](O)[C@H](O)[C@H]3O)[C@@H](O)[C@H](O)[C@H]2O)[C@@H](O)[C@H](O)[C@H]1O` [α-O(CH2)2N3, n=4, 1-O-(2-azidoethyl)-6-[O-β-D-glucopyranosyl-1,6]3-α-D-glucopyranoside]: “+”.
